Assay results published in ChEMBL document CHEMBL3593236, “Cloning, characterization and anion inhibition studies of a new γ-carbonic anhydrase from the Antarctic bacterium Pseudoalteromonas haloplanktis” (Bioorg Med Chem, 2015).

Target: T1, Carbonic anhydrase (Methanosarcina thermophila, UniProt P40881)
T1 sequence (P40881 whole entry): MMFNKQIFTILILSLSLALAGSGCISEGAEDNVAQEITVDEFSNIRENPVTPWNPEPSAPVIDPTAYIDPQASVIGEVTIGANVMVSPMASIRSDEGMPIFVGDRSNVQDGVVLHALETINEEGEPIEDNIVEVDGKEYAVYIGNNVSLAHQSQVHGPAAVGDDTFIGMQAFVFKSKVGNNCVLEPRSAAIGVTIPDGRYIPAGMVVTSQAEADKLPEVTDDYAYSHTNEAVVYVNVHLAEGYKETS
Description: Inhibition of archaeon Methanosarcina thermophila gamma-CA after 15 mins by stopped-flow/Co2 hydration assay

SMILES | Ki [mM]
[Br-].[Na+] [SODIUM BROMIDE] | 160
N#C[S-].[Na+] [THIOCYANATE SODIUM] | 7
